# Reference: US8697697B2, “Pyrazole derivatives as ERK inhibitors” (Kinentia Biosciences LLC, priority 2011, dated 2014)
# Counter-ions that a name gives are not always drawn.
# Columns and labels:
# ERK-2 kinase = ERK-2 kinase (Homo sapiens, UniProt P28482); assay: Assay against ERK-2 (33-P ATP, myelin basic protein substrate); type: biochemical; conditions: non-labeled ATP 1 μM, 22° C.
# Description: Compounds of the invention were assayed for ability to inhibit ERK-2 kinase using a 33-P radio-ligand binding assay. 33-P labeled ATP was used as the radio-ligand and myelin basic protein was used as the substrate. A non-labeled ATP concentration of 1 μM was used. Plates were incubated at 22° C. before isolation and radioactivity determination by scintillation counting. The IC50 values (concentration causing a half-maximal inhibition) and Hill coefficients (nH) were determined by non-linear regression analysis of competition curves generated with 10 data points using Hill equation curve fitting.
# human skin fibroblasts = assay: Skin fibroblast proliferation; type: cell-based; conditions: at higher concentrations
# Description: (§1) Fibroblasts were plated on day zero and allowed to attach. One day later, the cells were washed and then treated with control culture medium with or without test compound. Cells were harvested and counted on day-3. The culture medium was then assayed via Western blot analysis to determine expression levels of MMP-1.
# [1] = system: MMP-1 expression in skin fibroblasts; assay: MMP-1 expression in skin fibroblasts (Western blot); type: cell-based, human
# Description: as §1
# human keratinocytes = assay: Keratinocyte proliferation assay; type: cell-based
# Description: Compounds of the Invention were assayed for their ability to inhibit the proliferation of human keratinocytes. Namely, keratinocytes were plated on day zero and allowed to attach. One day later, the cells were washed and then treated with control culture medium with or without the test compound. Cells were harvested and counted on day-2. Value for the time-zero control was determined (mean and standard deviation based on triplicate experiments with n=9 data points). The untreated control value at day 2 was then determined (mean and standard deviation based on triplicate experiments with n=12 data points). All of the values from treated samples were compared to the control values and are expressed as the change from control±the standard deviation based on the three experiments.
# Chain of ERK-2 kinase (P28482 whole entry): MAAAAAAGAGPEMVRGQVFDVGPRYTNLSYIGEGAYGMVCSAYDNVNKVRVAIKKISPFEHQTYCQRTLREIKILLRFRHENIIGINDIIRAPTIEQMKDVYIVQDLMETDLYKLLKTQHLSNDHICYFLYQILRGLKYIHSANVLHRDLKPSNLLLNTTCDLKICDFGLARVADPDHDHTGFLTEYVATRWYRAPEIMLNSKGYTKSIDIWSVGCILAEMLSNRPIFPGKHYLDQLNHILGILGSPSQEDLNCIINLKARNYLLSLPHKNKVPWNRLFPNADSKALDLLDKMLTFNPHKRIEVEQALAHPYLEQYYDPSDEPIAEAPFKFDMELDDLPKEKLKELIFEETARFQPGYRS
structure (smiles),measurement,setting,value
"c1ccc(CNc2ccc3c(-c4[nH]ncc4-c4ccccc4)c[nH]c3n2)cc1 [Example 4, Benzyl-[3-(4-phenyl-2H-pyrazol-3-yl)-1H-pyrrolo[2,3-b]pyridin-6-yl]amine]",IC50,ERK-2 kinase,11.3 µM
"Cl.Clc1cccc(-c2cn[nH]c2-c2c[nH]c3ncccc23)c1 [Example 1, 3-[4-(3-Chlorophenyl)-2H-pyrazol-3-yl]-1H-pyrrolo[2,3-b]pyridine Hydrochloride]",effect on fibroblast proliferation,human skin fibroblasts,minimal effect
same,MMP-1 expression,"[1]; 5 μg/mL, culture medium, day-3, Western blot",significantly inhibited
same,collagenase (MMP-1) production,"[1]; at higher concentrations, Western blot",significant reduction
same,IC50,ERK-2 kinase,1.43 µM
same,GI50,"human keratinocytes; calculated from Table 2 data, read-out: GI50 (inhibition of keratinocyte proliferation)",4.36 µM
same,inhibition at 0.03 µM,"human keratinocytes; test concentration 0.03 μM, cells counted on day-2, change from control",-20%
same,inhibition at 0.15 µM,"human keratinocytes; test concentration 0.15 μM, cells counted on day-2, change from control",-13%
same,inhibition at 0.3 µM,"human keratinocytes; test concentration 0.30 μM, cells counted on day-2, change from control",-6%
same,inhibition at 1.51 µM,"human keratinocytes; test concentration 1.51 μM, cells counted on day-2, change from control",8%
same,inhibition at 3.02 µM,"human keratinocytes; test concentration 3.02 μM, cells counted on day-2, change from control",21%
same,inhibition at 6.04 µM,"human keratinocytes; test concentration 6.04 μM, cells counted on day-2, change from control",72%
same,inhibition at 15.1 µM,"human keratinocytes; test concentration 15.1 μM, cells counted on day-2, change from control",118%
"Clc1cccc(-c2cn[nH]c2-c2c[nH]c3nc(NCc4ccccc4)ccc23)c1 [Example 3, Benzyl-{3-[4-(3-chlorophenyl)-2H-pyrazol-3-yl]-1H-pyrrolo[2,3-b]pyridin-6-yl}amine Dihydrochloride]",IC50,ERK-2 kinase,2.23 µM
"c1ccc(-c2cn[nH]c2-c2c[nH]c3ncccc23)cc1 [Example 2, 3-[4-Phenyl-2H-pyrazol-3-yl]-1H-pyrrolo[2,3-b]pyridine Hydrochloride]",IC50,ERK-2 kinase,9.86 µM
